# Laboratory results: patent US6277834A, “Agents for relieving side effects of adrenal cortex hormone” (Senju Pharmaceutical Co. Ltd., priority 1998, dated 2001)
# Where a name gives a salt, the structure may show the parent alone.
# Columns and labels:
# [1] = tested on: croton oil-induced edema of the right auricles of the mice; assay: Croton oil-induced ear edema in mice (antiinflammatory effect); assay type: in vivo, ICR mice (10-week old male)
# Description: A test was performed for examining antiinflammatory effect observed by concurrent use of the present compound and an adrenocortical hormone. In addition, dose-response test was carried out for the adrenocortical hormone.
# (§1) 0.012% betamethasone valerate (dissolved in methanol).
# 0.5% EPC-K (dissolved in methanol).
# Twenty μl of croton oil (6%) dissolved in acetone was applied on the outer surface of the right auricles of the mice to induce edema. Fifteen minutes later, 20 μl of one of the test materials was applied to each of the right auricles.
# Four hours after the application of the test materials, the thickness of the right auricles of the mice were measured using a dial thickness gauge and edema rates were determined by comparing their thickness with that before induction.
# [2] = Acute toxicity (LD50); details: in vivo, rat
# [3] = Body weight, thymus and spleen weight in hairless mice after repeated topical application (reduction of side effects of an adrenocortical hormone); details: EPC-K (0.5%) administered concurrently with betamethasone valerate (0.012%), two weeks
# Description: A test was carried out to examine the effect of the present compound to reduce side effects of an adrenocortical hormone.
# as §1
# 0.012% betamethasone valerate +0.5% EPC-K (dissolved in methanol).
# 10-week old female HR-1 hairless mice purchased from SLC Japan were used for the test. One hundred μl of the test materials were applied to the respective mice on the whole area of their back skin. This procedure was repeated once a day for two weeks, and then the body weight and the weight of the thymus and the spleen were determined.
# [4] = Table 4, 4 h after 20 μl topical, 0.5% EPC-K, 0.012% betamethasone valerate, or both, mean ± S.D. (n = 23-27), methanol 116.1 ± 23.3
# [5] = Table 4, edema inhibition 4 h after 20 μl topical, 0.5% EPC-K, 0.012% betamethasone valerate, or both, n = 23-27
Compound,"Edema rate(%) [1, 4] [%]","Inhibition rate(%) [1, 5] [%]",LD50 ([2]; iv) [mg/kg],LD50 ([2]; po) [mg/kg],atrophy of spleen (by betamethasone valerate) [3],atrophy of thymus (by betamethasone valerate) [3],body weight reduction (by betamethasone valerate) [3],"Edema rate(%) ([1]; Table 5 dose-response, 0.012% betamethasone valerate, 4 h, mean ± S.D. (n = 8-9), methanol 138.8 ± 18.5)","Inhibition rate(%) ([1]; Table 5 dose-response, 0.012% betamethasone valerate, 4 h, n = 8-9)","Edema rate(%) ([1]; Table 5 dose-response, 0.040% betamethasone valerate, 4 h, mean ± S.D. (n = 8-9), methanol 138.8 ± 18.5)","Inhibition rate(%) ([1]; Table 5 dose-response, 0.040% betamethasone valerate, 4 h, n = 8-9)","Edema rate(%) ([1]; Table 5 dose-response, 0.12% betamethasone valerate, 4 h, mean ± S.D. (n = 8-9), methanol 138.8 ± 18.5)","Inhibition rate(%) ([1]; Table 5 dose-response, 0.12% betamethasone valerate, 4 h, n = 8-9)",concentration of betamethasone valerate that would give an effect comparable to 0.012% betamethasone valerate plus 0.5% EPC-K ([1]; calculated from the dose-response test (Table 5)) [%]
"Cc1c(C)c2c(c(C)c1OP(=O)(O)OC1=C(O)[C@@H]([C@@H](O)CO)OC1=O)CCC(C)(CCCC(C)CCCC(C)CCCC(C)C)O2 (mixture of isomers) [EPC-K, potassium salt of phosphodiester of L-ascorbic acid and DL-α-tocopherol]",109.1 ± 26.3,6.0,> 100,> 5000,suppressed,suppressed,suppressed,,,,,,,
"CCCCC(=O)O[C@]1(C(=O)CO)[C@@H](C)C[C@H]2[C@@H]3CCC4=CC(=O)C=C[C@]4(C)[C@@]3(F)[C@@H](O)C[C@@]21C [Betamethasone valerate, betamethasone valerate]",87.3 ± 21.7,27.9,,,,,,101.6 ± 15.3,26.8,86.5 ± 30.3,37.7,52.8 ± 13.3,62.0,0.088
